These results are taken from patent US20050075345A1, “Novel inhibitor compounds specific of secreted non-pancreatic human a2phospholipase of group II” (Yang Ji Chemical Company Ltd., priority 2001, published 2005).

Assay [1] has as its system ear edema induced by croton oil. Nature of the assay: Croton oil-induced ear edema test, local anti-inflammatory effect. In kind it is in vivo, male ICR mice. To be noted: mice, topical, 5 hours. Here is the method:
A-2: As animals, male ICR mice weighing 25 g were used.
A-4: To evaluate the in vivo anti-inflammatory effect of the inventive PMS compounds as listed above, the ear edema test was used as an acute inflammatory experimental model.
After inducing edema on one ear of mice by the application of croton oil, the sample of each of the PMS compounds as described above was dissolved in 80% chloroform. […] The other ear was applied only with the solvent, i.e., 80% chloroform.
After 5 hours of the initiation of the experiment, the ear tissue at the level of edema was collected by a gimlet from the skin, and the tissue collected was compared with one collected from the control part of the ear by a gimlet, to calculate the percent inhibition.
A-5: To calculate the statistical significance, the results obtained in each of the […] and the […] were evaluated by Student's t-test.

The target in assay [2] is T1, human recombinant PLA2 (group II) (Homo sapiens, UniProt P14555).
T1 sequence (P14555 21-144): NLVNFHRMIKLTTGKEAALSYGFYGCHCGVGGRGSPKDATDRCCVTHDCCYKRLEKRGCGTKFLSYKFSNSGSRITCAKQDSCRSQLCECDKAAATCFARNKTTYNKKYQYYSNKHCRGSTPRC
In words: Fluorometric anti-PLA2 assay, human recombinant PLA2 (group II). The note with it: measured for fluorescence with human recombinant PLA2 (group II); read-out: Anti-PLA2 activity IC50 HPLA2. Type of assay: biochemical. On the procedure:
(§1) Phospholipase A2 hydrolyzes an ester linkage at the sn-2 position of glycerophospholipid and liberates fatty acids and lysophospholipids. The in vitro action of particular compounds was evaluated by the analysis of fatty acids according to the fluorometric method described in Radvanyi et al., Anal. Biochem. 1989, 177. 103-109, and by the analysis of lysophospholipids according to the UV spectrophotometric method described in Reynolds et al., Anal. Biochem. 1992, 204, 190-197.
(§2) Enzymes used were two secretory enzymes of group II (human recombinant PLA2, and PLA2 basic subunit isolated from Crotalus durissus terrificus), and a secretory enzyme of porcine pancreatic (group I) PLA2.
(§3) Regarding substrates, palmitoyl-2-(10-pyrenyl decanoyl)-sn-glycero-3-phosphatidylglycerolic acid as a fluorescent substrate was used in the fluorometric method, and the lithium salt of 1,2-bis-(dihexanylthio)-dideoxy-rac-glycero-3-phosphorylglycerol was used in the UV spectrophotometric method.
(§4) The fluorometric analysis was performed using a Perkin Elmer LS50 luminescence spectrometer in a unit dosage polystyrene cell having a size of 1 cm. The exact concentration of the fluorescent substrate was determined by UV Unicam spectrometry in a quartz cell.
(§5) PLA2 is an enzyme that hydrolyzes an ester linkage at the sn-2 position of phospholipid. […] After hydrolysis with the enzyme, fluorescence emitted by the liberated fatty acid (pyrenyl decanoic acid) complex with bovine serum albumin (BSA) is increased, and strong fluorescence emission is observed at 378 and 398 nm. The principle of the analysis is to measure a difference in fluorescence at 398 nm in order to examine the production of fatty acids liberated for a given period of time, thus determining the PLA2 activity.
(§6) Measurement of the enzymatic activity was performed in a cell containing: 960 μl of Tris buffer; 50 mM HCl (pH 7.5); 0.5 M NaCl, 1 mM EGTA; and 1 μl substrate. This mixture was stirred under reflux for one minute to permit the formation of vesicles of substrate, and then, 10 μl of 10% SAB, 10 μl of solvent (ethanol or DMSO) or inhibitor solution, 10 μl of PLA2 to a given concentration and finally 10 μl of 1 M calcium chloride (CaCl2) for initiating the activity were successively added to the mixture under stirring.
(§7) Good conditions of measurement of the enzymatic activity include saturation of the enzyme, and thus, initial concentrations used are as follows: (i) human recombinant PLA2: 0.1 μl/ml; (ii) porcine pancreatic PLA2: 0.6 μl/ml; and (iii) Crotalus durissus terrificus (CB) PLA2: 0.05 μl/ml. Mother solution containing the inhibitor was prepared at an initial concentration of 10^−2 M.
(§8) The enzymatic activity is shown by a curve of which the original slope permits to calculate the initial velocity of the reaction. The following equation permits to calculate the enzymatic activity (A; μmol) of fatty acids liberated per minute. In the equation, S0 represents the slope of a curve in the absence of calcium (control), S the slope in the presence of calcium, V the volume (μl) of the substrate solution, and Fmax the signal of maximum fluorescence obtained at the end of the enzymatic reaction: [formula]
(§9) The residual activity in the presence of an inhibitor was evaluated by slopes obtained in the absence and presence of an inhibitor, according to the following equation: Residual activity (%)=(S−S0) in the presence of inhibitor/(S−S0) in the absence of inhibitor
(§10) Values obtained as a logarithmic function of the inhibitor concentrations used permit to determine the IC50 value, i.e., the inhibitor concentration required to cause 50% reduction of the enzymatic activity. The lower the IC50 value, the higher the inhibitory activity of a compound tested.

For assay [3], the system named is PLA2 of Crotalus durissus terrificus (group II). In words: UV spectrophotometric anti-PLA2 assay, Crotalus durissus terrificus PLA2 (CB). Type of assay: biochemical. The note with it: UV spectrophotometric method, read-out: Anti-PLA2 activity IC50 CB Spectro. On the procedure: as §1, §2, §3
The UV spectrophotometric analysis was performed on an ELx 808 Ultra Micro Plate Reader apparatus (96-well plate).
Lysothiophospholipid (LTPL) liberated by the lypolytic action of PLA2 in the presence of calcium reacts with dithionitrobenzoic acid (DTNB) present in medium to form an LTPL-TNB complex and an TNB-anion which induces the yellowing of reaction medium.
The measurement of enzymatic activity is performed in a multiple well plate of which each well contains 190 μl of 1× buffer, 2 μl of 10 mM DTNB, […] of 20 mM substrate, 2 μl of solvent or inhibitor solution, and 2 μl of PLA2 at a given concentration. The plate was stirred and 2 μl of 1 M calcium chloride was added to initiate the enzymatic reaction. Substrate was used at a lower concentration than micellar critical concentration (about 1 mM) in a monomeric form, and the ratio of substrate to enzyme was respected. […]
(§11) Good conditions of measurement include saturation of enzyme. […] It calculated directly the initial velocity of the reaction. […]
(§12) 15 readings for each well (3 wells per concentration) were performed at intervals of 3 seconds.

For assay [4] the test system is unchanged. In words: Fluorometric anti-PLA2 assay, Crotalus durissus terrificus PLA2 (CB). Type of assay: biochemical. To be noted: fluorometric method, read-out: Anti-PLA2 activity IC50 CB Fluo. On the procedure: as §1, §2, §3, §4
PLA2 is an enzyme that hydrolyzes an ester linkage at the sn-2 position of phospholipid. […] After hydrolysis with the enzyme, fluorescence emitted by the liberated fatty acid (pyrenyl decanoic acid) complex with bovine serum albumin (BSA) is increased, and strong fluorescence emission is observed at 378 and 398 nm. The principle of the analysis is to measure a difference in fluorescence at 398 nm in order to examine the production of fatty acids liberated for a given period of time, thus determining the PLA2 activity. […]
The residual activity in the presence of an inhibitor was evaluated by slopes obtained in the absence and presence of an inhibitor, according to the following equation: Residual activity (%)=(S−S0) in the presence of inhibitor/(S−S0) in the absence of inhibitor […]

Assay [5] addresses T2, porcine pancreatic PLA2 (group I) (Sus scrofa, UniProt P00592). In words: Fluorometric anti-PLA2 assay, porcine pancreatic PLA2 (group I). Type of assay: biochemical. To be noted: measured for fluorescence with porcine pancreatic PLA2 (group I); read-out: Anti-PLA2 activity IC50 PPLA2. On the procedure: as §1, §2, §3, §4, §5, §6, §7, §8, §9, §10
The target of assay [6] is T2, porcine pancreatic PLA2 (group I). Nature of the assay: UV spectrophotometric anti-PLA2 assay, porcine pancreatic PLA2 (group I). In kind it is biochemical. To be noted: UV spectrophotometric method, read-out: Anti-PLA2 activity IC50 PPLA2 spectro. On the procedure: as §1, §2, §3
The UV spectrophotometric analysis was performed on an ELx 808 Ultra Micro Plate Reader apparatus (96-well plate). […]
as §11, §12

Assay [7] has as its system carrageenan-induced edema. Nature of the assay: Carrageenan-induced edema test in rats. Type of assay: in vivo. The note with it: dose of 10 mg/kg. On the procedure:
An in vivo activity assay was performed by a carrageenan-induced edema test in rats.
In the experimental protocol conducted, indomethacin as the reference product, or the compound No. 5, was administered intraperitoneally or orally at one hour before the injection of carrageenan into the hind leg of the rats. The volume of edema was measured at 0, 3 and 5 hours after the injection of carrageenan. The doses used were 5, 10 and 20 mg/kg for the two products tested.
(In general: In the carrageenan paw model, swelling and tenderness develop within hours.)

Some results are limits rather than exact numbers.

T2 sequence (P00592 23-146): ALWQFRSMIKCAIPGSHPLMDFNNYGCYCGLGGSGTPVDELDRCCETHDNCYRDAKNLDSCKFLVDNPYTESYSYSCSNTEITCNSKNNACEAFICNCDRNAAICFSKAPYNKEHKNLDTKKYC

With “1-[4′-(4,5-dihydro-1,2,4(4H)-5-oxo-oxadiazol-3-ylmethyl)benzoyl]-4-dodecylpiperazine [PMS 1314]”, the “Edema inhibition (%)” value in assay [1] (1 mg/ear) was 28.5 ± 6.85%.
As for “1-[4′-(4,5-dihydro-1,2,4(4H)-5-oxo-oxadiazol-3-ylmethyl)benzyl]-4-tetradecylpiperazine [Compound 2]”, the “Edema inhibition (%)” value in assay [1] (1 mg/ear, listed as PMS 1227) was determined as 51.45 ± 11.67%. The half-inhibitory concentration (IC50) (usually the midpoint of a concentration-inhibition curve) in assay [2] is above 10 µM.
In the case of “1-[4′-(4,5-dihydro-1,2,4(4H)-5-oxo-oxadiazol-3-ylmethyl)benzyl]-4-tetradecylpiperazine [PMS 1281]”, the “Edema inhibition (%)” value in assay [1] (1 mg/ear) was determined as 47.83 ± 12.34%.
In the case of `CCCCCCCCCCCCCCCCCCN1CCN(C(=O)c2ccc(Cc3noc(=O)[nH]3)cc2)CC1` [Compound 6, 1-[4′-(4,5-dihydro-1,2,4(4H)-5-oxo-oxadiazol-3-ylmethyl)benzoyl]-4-octadecylpiperazine], the half-maximal inhibitory concentration (IC50) was 2 µM in assay [3], 0.8 µM in assay [2] and 1.5 µM in assay [4].
`CCCCCCCCCCCCCCCCCCN1CCN(c2ccc(Cc3noc(=O)[nH]3)cc2)CC1` [Compound 10, 1-[4′-(4,5-dihydro-1,2,4(4H)-5-oxo-oxadiazol-3-ylmethyl)phenyl]-4-octadecylpiperazine]: the IC50 was above 100 µM in assay [5] and 2.71 µM in assay [2].
As for `CCCCCCCCCCCCN1CC(C)N(C(=O)c2ccc(Cc3noc(=O)[nH]3)cc2)CC1C` (centres unmarked) [Compound 13, 1-[4′-(4,5-dihydro-1,2,4(4H)-5-oxo-oxadiazol-3-ylmethyl)benzoyl]-2,5-dimethyl-4-dodecylpiperazine], in assay [5], the IC50 is above 100 µM. The “Edema inhibition (%)” value in assay [1] (1 mg/ear) is given as 62.79 ± 3.23%.
Consider `CCCCCCCCCCCCCCCCCCN1CCN(C(=O)c2ccc(C=C3SC(=O)NC3=O)cc2)CC1` [Compound 14, [4-(4′-octadecylpiperazine-1′-ylcarbonyl)benzylidene]-1,3-thiazolidine-2,4-dione], for which the IC50 in assay [3] was 0.4 µM; in assay [5] it was 10 µM; in assay [2], 0.28 µM; in assay [6] it was above 100 µM; in assay [4], 0.4 µM.
Regarding `CCCCCCCCCCCCCCCCCCN1CCN(C(=O)c2ccc(CC3SC(=O)NC3=O)cc2)CC1` (centres unmarked) [Compound 15, 1-[4′-(2,4-dioxo-1,3-thiazolidin-5-ylmethyl)benzoyl]-4-octadecylpiperazine], the IC50 in assay [3] is 2 µM; in assay [5], above 100 µM; in assay [2], 1 µM; in assay [4], 1.4 µM.
With `CCCCCCCCCCCCCCN1CCN(Cc2ccc(Cc3noc(=O)[nH]3)cc2)C(=O)C1` [Example 7, 1-[4′-(4,5-dihydro-1,2,4(4H)-5-oxo-oxadiazol-3-ylmethyl)benzyl]-4-tetradecylpiperazin-2-one], the IC50 in assay [5] was above 100 µM; in assay [2], 30 µM.
Regarding `CCCCCCCCCCCCCCN1CCN(C(=O)c2ccc(Cc3noc(=O)[nH]3)cc2)CC1` [Example 8, 1-[4′-(4,5-dihydro-1,2,4(4H)-5-oxo-oxadiazol-3-ylmethyl)benzoyl]-4-tetradecylpiperazine], the IC50 is above 100 µM in assay [5] and 18.7 µM in assay [2].
As for `CCCCCCCCCCCCCCN1CCN(C(=O)c2ccc(CCCc3noc(=O)[nH]3)cc2)CC1` [Example 9, 1-[4′-(4,5-dihydro-1,2,4(4H)-5-oxo-oxadiazol-3-ylpropyl)benzoyl]-4-tetradecylpiperazine], the IC50 was above 100 µM in assay [5] and 5.3 µM in assay [2].
On to `COc1ccc2c(c1)c(CC(=O)O)c(C)n2C(=O)c1ccc(Cl)cc1` [Indomethacin, indomethacin], for which the inhibition of edema was 79% in assay [7] (intraperitoneal route, given one hour before carrageenan) and 16% in assay [7] (oral route, at 5 hours after the injection of carrageenan). The “Edema inhibition (%)” value in assay [1] (0.5 mg/ear) was 43.11 ± 8.79%.
